Source: the NIST ThermoML archive (doi:10.1021/je034102r)
± gives the expanded uncertainty stated by the source.

Assay: molar heat capacity at constant pressure
Details: 101.33 kPa, Liquid, heat bridge-scanning calorimeter

CCCCn1cc[n+](C)c1.F[P-](F)(F)(F)(F)F [1-butyl-3-methylimidazolium hexafluorophosphate]
Details	molar heat capacity at constant pressure [J/K/mol]
436.99 K	483.11 ± 9.7
437.29 K	483.68 ± 9.7
437.42 K	483.96 ± 9.7
437.56 K	484.53 ± 9.7
437.69 K	484.82 ± 9.7
437.83 K	485.38 ± 9.7
437.96 K	485.1 ± 9.7
438.1 K	485.1 ± 9.7
438.24 K	484.53 ± 9.7
438.37 K	483.96 ± 9.7
438.67 K	484.53 ± 9.7
438.81 K	484.53 ± 9.7
438.94 K	484.82 ± 9.7
439.08 K	485.1 ± 9.7
439.21 K	484.82 ± 9.7
439.35 K	484.82 ± 9.7
439.49 K	484.82 ± 9.7
439.62 K	485.38 ± 9.7
439.76 K	485.95 ± 9.7
439.89 K	485.67 ± 9.7
440.03 K	485.95 ± 9.7
440.32 K	485.1 ± 9.7
440.46 K	484.82 ± 9.7
440.6 K	484.82 ± 9.7
440.73 K	484.82 ± 9.7
440.87 K	484.82 ± 9.7
441 K	484.82 ± 9.7
441.14 K	485.1 ± 9.7
441.28 K	484.82 ± 9.7
441.41 K	484.53 ± 9.7
441.71 K	484.82 ± 9.7
441.85 K	485.1 ± 9.7
441.98 K	485.1 ± 9.7
442.12 K	485.1 ± 9.7
442.25 K	485.67 ± 9.7
442.39 K	486.52 ± 9.7
442.53 K	486.52 ± 9.7
442.66 K	485.95 ± 9.7
442.8 K	485.95 ± 9.7
442.93 K	486.24 ± 9.7
443.07 K	486.24 ± 9.7
443.37 K	485.95 ± 9.7
443.51 K	485.95 ± 9.7
443.65 K	485.95 ± 9.7
443.78 K	485.95 ± 9.7
443.92 K	486.24 ± 9.7
444.05 K	485.95 ± 9.7
444.19 K	486.24 ± 9.7
444.32 K	485.95 ± 9.7
444.46 K	486.52 ± 9.7
444.76 K	485.95 ± 9.7
444.9 K	485.95 ± 9.7
445.03 K	485.95 ± 9.7
445.17 K	486.24 ± 9.7
445.3 K	486.8 ± 9.7
445.44 K	486.52 ± 9.7
445.58 K	487.37 ± 9.7
445.71 K	487.37 ± 9.7
445.85 K	486.8 ± 9.7
445.99 K	487.09 ± 9.7
446.12 K	486.52 ± 9.7
446.42 K	487.09 ± 9.7
446.55 K	487.09 ± 9.7
446.69 K	487.09 ± 9.7
446.83 K	487.37 ± 9.7
446.96 K	487.94 ± 9.7
447.1 K	487.66 ± 9.7
447.23 K	487.66 ± 9.7
447.37 K	487.37 ± 9.7
447.51 K	487.09 ± 9.7
447.81 K	489.08 ± 9.7
447.94 K	489.65 ± 9.7
448.08 K	489.36 ± 9.7
448.22 K	488.51 ± 9.7
448.35 K	488.23 ± 9.7
448.49 K	487.94 ± 9.7
448.62 K	487.94 ± 9.7
448.76 K	488.23 ± 9.7
448.9 K	487.94 ± 9.7
449.03 K	487.66 ± 9.7
449.17 K	487.94 ± 9.7
449.46 K	487.94 ± 9.7
449.6 K	487.94 ± 9.7
449.74 K	488.79 ± 9.7
449.89 K	489.08 ± 9.7
450.02 K	489.36 ± 9.7
450.16 K	489.08 ± 9.7
450.3 K	488.51 ± 9.7
450.43 K	488.51 ± 9.7
450.57 K	488.23 ± 9.7
450.87 K	488.51 ± 9.7
451 K	489.08 ± 9.7
451.14 K	489.08 ± 9.7
451.28 K	488.79 ± 9.7
451.41 K	488.51 ± 9.7
451.55 K	488.51 ± 9.7
451.69 K	488.51 ± 9.7
451.82 K	489.08 ± 9.7
451.96 K	489.36 ± 9.7
452.1 K	489.36 ± 9.7
452.23 K	489.08 ± 9.7
452.53 K	489.08 ± 9.7
452.67 K	488.79 ± 9.7
452.8 K	489.65 ± 9.7
452.94 K	490.5 ± 9.9
453.07 K	491.07 ± 9.9
453.21 K	490.5 ± 9.9
453.35 K	490.21 ± 9.9
453.48 K	489.93 ± 9.7
453.62 K	489.65 ± 9.7
453.92 K	489.65 ± 9.7
454.06 K	489.93 ± 9.7
454.2 K	489.93 ± 9.7
454.33 K	489.93 ± 9.7
454.47 K	489.65 ± 9.7
454.61 K	489.65 ± 9.7
454.74 K	489.93 ± 9.7
454.88 K	489.93 ± 9.7
455.02 K	489.93 ± 9.7
455.15 K	489.93 ± 9.7
455.29 K	489.93 ± 9.7
455.59 K	490.5 ± 9.9
455.72 K	490.5 ± 9.9
455.86 K	490.21 ± 9.9
456 K	490.5 ± 9.9
456.13 K	490.78 ± 9.9
456.28 K	490.78 ± 9.9
456.42 K	490.78 ± 9.9
456.56 K	490.78 ± 9.9
456.69 K	491.07 ± 9.9
457 K	491.35 ± 9.9
457.13 K	491.35 ± 9.9
457.27 K	491.35 ± 9.9
457.41 K	491.07 ± 9.9
457.54 K	491.07 ± 9.9
457.68 K	491.64 ± 9.9
457.82 K	491.64 ± 9.9
457.95 K	491.64 ± 9.9
458.09 K	491.64 ± 9.9
458.23 K	492.2 ± 9.9
458.37 K	492.49 ± 9.9
458.66 K	492.49 ± 9.9
458.8 K	492.2 ± 9.9
458.93 K	491.92 ± 9.9
459.07 K	491.92 ± 9.9
459.21 K	491.92 ± 9.9
459.35 K	492.2 ± 9.9
459.48 K	492.49 ± 9.9
459.62 K	492.77 ± 9.9
459.76 K	493.34 ± 9.9
460.06 K	492.49 ± 9.9
460.19 K	492.77 ± 9.9
460.33 K	494.19 ± 9.9
460.47 K	495.05 ± 9.9
460.6 K	494.76 ± 9.9
460.74 K	494.48 ± 9.9
460.88 K	493.62 ± 9.9
461.01 K	493.06 ± 9.9
461.15 K	492.77 ± 9.9
461.28 K	492.77 ± 9.9
461.42 K	493.06 ± 9.9
461.72 K	493.34 ± 9.9
461.85 K	493.06 ± 9.9
461.99 K	492.77 ± 9.9
462.12 K	493.06 ± 9.9
462.26 K	493.06 ± 9.9
462.4 K	492.77 ± 9.9
462.53 K	493.34 ± 9.9
462.67 K	493.06 ± 9.9
462.82 K	493.06 ± 9.9
463.12 K	493.34 ± 9.9
463.26 K	493.06 ± 9.9
463.39 K	493.62 ± 9.9
463.53 K	493.34 ± 9.9
463.67 K	493.34 ± 9.9
463.81 K	493.62 ± 9.9
463.94 K	493.62 ± 9.9
464.08 K	493.62 ± 9.9
464.22 K	493.62 ± 9.9
464.35 K	494.48 ± 9.9
464.49 K	495.33 ± 9.9
464.79 K	497.32 ± 9.9
464.92 K	496.18 ± 9.9
465.06 K	495.33 ± 9.9
465.2 K	494.76 ± 9.9
465.34 K	494.48 ± 9.9
465.47 K	495.05 ± 9.9
465.61 K	495.9 ± 9.9
465.75 K	495.9 ± 9.9
465.89 K	496.47 ± 9.9
466.19 K	494.76 ± 9.9
